pIC50: −log10 of the molar value. Structures can show the parent of a compound that is named as a salt. Where two headings read alike, the source gives them in different places.

We go through 11 compounds from patent publication US20230002361A1, “2H-INDAZOLE DERIVATIVES AND THEIR USE IN THE TREATMENT OF DISEASE” (BIOGEN MA INC., priority 2019, published 2023).

One data set concerns the target T1, IRAK4 (Homo sapiens, UniProt Q9NWZ3).
T1 construct: with 0.1 nM IRAK4, 1.6 μM of biotinylated peptide substrate and 10 μM ATP
T1 sequence (Q9NWZ3 1-460): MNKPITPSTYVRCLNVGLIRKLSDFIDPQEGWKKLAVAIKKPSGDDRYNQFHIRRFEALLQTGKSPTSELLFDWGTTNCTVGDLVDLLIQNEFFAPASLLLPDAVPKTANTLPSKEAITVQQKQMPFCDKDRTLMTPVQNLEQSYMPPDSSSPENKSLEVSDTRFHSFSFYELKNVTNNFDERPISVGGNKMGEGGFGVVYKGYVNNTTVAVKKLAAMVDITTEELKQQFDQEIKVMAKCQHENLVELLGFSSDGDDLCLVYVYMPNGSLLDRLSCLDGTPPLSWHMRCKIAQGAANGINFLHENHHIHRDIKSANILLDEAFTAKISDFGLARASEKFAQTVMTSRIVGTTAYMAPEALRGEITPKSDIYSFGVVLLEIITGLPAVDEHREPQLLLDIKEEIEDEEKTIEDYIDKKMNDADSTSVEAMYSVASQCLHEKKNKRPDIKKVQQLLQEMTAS
The experiment in a line: IRAK4 MSD Biochemical Assay (1 mM ATP, 2 h). Conditions: room temperature; for pIC50: read-out: IRAK4 MSD Biochemical Assay (1 mM ATP, 2 h) IC50. A digest of the protocol: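 Run with 1 mM ATP and […] for 2 h, then quenched with EDTA, pH 8. The phosphorylated biotinylated peptide was captured on streptavidin plates and detected with anti-phospho-threonine antibody plus Sulfo-Tag secondary by MSD electrochemiluminescence.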

The target of another data set is T2, MDR1 (P-gp) (Homo sapiens, UniProt P08183).
T2 construct: host or cells: MDCK cells
Description: MDR1-MDCK assay (efflux ratio). It is filed as in vitro ADME. To be noted: human, MDCK-MDR1, 1 μM compound, 120 minutes incubation; read-out: MDR1-MDCK Efflux Ratio; (B-A/A-B). A digest of the protocol: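 Human MDR1-transfected MDCK monolayers, cultured 7 days on transwell inserts with TEER checked, were dosed with compound at 1 μM in HBSS-HEPES. Transport was measured in both A-B and B-A directions. Efflux ratio came from the directional permeabilities, with mass balance also calculated.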

T2 sequence (P08183 whole entry): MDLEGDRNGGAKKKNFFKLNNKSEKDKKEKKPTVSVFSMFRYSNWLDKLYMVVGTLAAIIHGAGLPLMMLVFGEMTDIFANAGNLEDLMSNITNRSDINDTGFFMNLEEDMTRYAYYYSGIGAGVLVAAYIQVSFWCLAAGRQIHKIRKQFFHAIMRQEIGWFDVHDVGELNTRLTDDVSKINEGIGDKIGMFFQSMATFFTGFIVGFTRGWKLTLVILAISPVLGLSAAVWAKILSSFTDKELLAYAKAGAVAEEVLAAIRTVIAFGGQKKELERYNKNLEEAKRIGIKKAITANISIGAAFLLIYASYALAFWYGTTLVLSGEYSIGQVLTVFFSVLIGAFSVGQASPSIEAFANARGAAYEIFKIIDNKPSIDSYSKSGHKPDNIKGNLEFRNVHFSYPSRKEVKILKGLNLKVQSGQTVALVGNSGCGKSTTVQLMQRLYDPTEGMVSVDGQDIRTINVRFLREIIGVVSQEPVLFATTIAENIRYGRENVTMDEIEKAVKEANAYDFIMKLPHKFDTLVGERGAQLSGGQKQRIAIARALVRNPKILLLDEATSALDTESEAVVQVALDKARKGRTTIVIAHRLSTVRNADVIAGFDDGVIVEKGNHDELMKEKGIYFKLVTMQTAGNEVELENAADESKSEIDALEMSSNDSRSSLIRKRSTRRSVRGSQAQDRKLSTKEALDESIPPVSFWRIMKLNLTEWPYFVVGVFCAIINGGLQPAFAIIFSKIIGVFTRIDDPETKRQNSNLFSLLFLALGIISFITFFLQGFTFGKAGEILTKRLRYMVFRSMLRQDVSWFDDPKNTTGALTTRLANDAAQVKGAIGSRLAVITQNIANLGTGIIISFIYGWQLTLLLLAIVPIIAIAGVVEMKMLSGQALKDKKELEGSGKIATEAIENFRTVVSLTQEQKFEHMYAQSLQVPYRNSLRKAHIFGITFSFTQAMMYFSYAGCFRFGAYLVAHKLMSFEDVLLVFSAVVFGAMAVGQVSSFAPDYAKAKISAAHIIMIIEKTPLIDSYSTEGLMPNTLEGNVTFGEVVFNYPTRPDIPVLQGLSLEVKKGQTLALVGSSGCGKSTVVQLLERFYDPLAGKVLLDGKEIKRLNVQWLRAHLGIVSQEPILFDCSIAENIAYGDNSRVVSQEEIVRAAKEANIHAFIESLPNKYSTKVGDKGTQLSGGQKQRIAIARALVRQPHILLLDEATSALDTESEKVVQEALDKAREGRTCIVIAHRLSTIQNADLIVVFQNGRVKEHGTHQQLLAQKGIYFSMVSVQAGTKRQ

Consider `CC(C)Oc1cc2nn(C34CCC(C)(CC3)OC4)cc2cc1C(=O)Nc1cccn(C)c1=O` [Example 58, 6-Isopropoxy-N-(1-methyl-2-oxo-1,2-dihydropyridin-3-yl)-2-(1-methyl-2-oxabicyclo[2.2.2]octan-4-yl)-2H-indazole-5-carboxamide Trifluoroacetate], for which, at IRAK4, the pIC50 (in general, the IC50 on a negative log10 scale, so that one unit is a factor of ten) was 9.40. The efflux ratio at 120 min, 1 μM on MDR1 (P-gp) was 0.9.
For `COc1cccc(NC(=O)c2cc3cn(C4CCOCC4)nc3cc2OC)n1.O=C(O)C(F)(F)F` [Example 5, 6-Methoxy-N-(6-methoxypyridin-2-yl)-2-(tetrahydro-2H-pyran-4-yl)-2H-indazole-5-carboxamide trifluoroacetate], the pIC50 at IRAK4 was 7.68. The efflux ratio at 120 min, 1 μM at MDR1 (P-gp) came to 0.6.
As for `COc1cc2nn(C34COC(C)(C3)C4)cc2cc1C(=O)Nc1cccc(C(F)F)n1` [Example 87, N-(6-(difluoromethyl)pyridin-2-yl)-6-methoxy-2-(1-methyl-2-oxabicyclo[2.1.1]hexan-4-yl)-2H-indazole-5-carboxamide trifluoroacetate], the pIC50 at IRAK4 is 8.62. Besides, the efflux ratio at 120 min, 1 μM at MDR1 (P-gp) worked out at 0.7.
Regarding `Cn1cccc(NC(=O)c2cc3cn(C[C@H]4CCOC4)nc3nc2OC2CCCC2)c1=O` (single isomer, unassigned) [Example 114], the pIC50 at IRAK4 was 8.74. On MDR1 (P-gp), the efflux ratio at 120 min, 1 μM turned out to be 1.5.
On to `COc1ncccc1NC(=O)c1cc2cn(C34COC(C)(C3)C4)nc2cc1OC(C)C` [Example 90, 6-Isopropoxy-N-(2-methoxypyridin-3-yl)-2-(1-methyl-2-oxabicyclo[2.1.1]hexan-4-yl)-2H-indazole-5-carboxamide trifluoroacetate], for which the pIC50 on IRAK4 was 9.22. On MDR1 (P-gp), the efflux ratio at 120 min, 1 μM turned out to be 0.7.
In the same order, the values of `COCCCn1cc2cc(C(=O)Nc3cnn4cccnc34)c(OC(C)C)cc2n1` [Example 35, 6-Isopropoxy-2-(3-methoxypropyl)-N-(pyrazolo[1,5-a]pyrimidin-3-yl)-2H-indazole-5-carboxamide] are 8.30 and 1.1.
With `COCCCn1cc2cc(C(=O)Nc3cccc(C(F)F)n3)c(OC)cc2n1.Cl` [Example 17, N-(6-(difluoromethyl)pyridin-2-yl)-6-methoxy-2-(3-methoxypropyl)-2H-indazole-5-carboxamide hydrochloride], the pIC50 at IRAK4 is 7.95. Also, at MDR1 (P-gp), the efflux ratio at 120 min, 1 μM came to 0.4.
For `COc1cccc(NC(=O)c2cc3cn(CC4CCOC4)nc3cn2)n1.O=C(O)C(F)(F)F` (stereo not shown) [Example 7, N-(6-methoxypyridin-2-yl)-2-((tetrahydrofuran-3-yl)methyl)-2H-pyrazolo[3,4-c]pyridine-5-carboxamide Trifluoroacetate], on IRAK4, the pIC50 is 5.86. The efflux ratio at 120 min, 1 μM on MDR1 (P-gp) came out at 0.6.
For `CCOc1cc2nn(C34COC(C)(C3)C4)cc2cc1C(=O)Nc1cccn(C)c1=O` [Example 86, 6-Ethoxy-N-(1-methyl-2-oxo-1,2-dihydropyridin-3-yl)-2-(1-methyl-2-oxabicyclo[2.1.1]hexan-4-yl)-2H-indazole-5-carboxamide tfifluoroacetate], half-maximal inhibition at IRAK4 (IRAK4 MSD Biochemical Assay (1 mM ATP, 2 h) IC50 (nM)) (IC50) was put at 3.7 nM. The efflux ratio at 120 min, 1 μM on MDR1 (P-gp) came to 1.8.
In the case of `COc1cccc(NC(=O)c2cc3cn(C4CCOC4)nc3cc2OC)n1.O=C(O)C(F)(F)F` (stereo not shown) [Example 4, 6-Methoxy-N-(6-methoxypyridin-2-yl)-2-(tetrahydrofuran-3-yl)-2H-indazole-5-carboxamide trifluoroacetate], on IRAK4, the pIC50 is 5.47. Besides, the efflux ratio at 120 min, 1 μM on MDR1 (P-gp) amounted to 0.4.
On to `CC12CCC(n3cc4cc(C(=O)Nc5ccn(C(F)F)n5)c(OC5CCC5)cc4n3)(CC1)CO2` [Example 139, 6-cyclobutoxy-N-(1-(difluoromethyl)-1H-pyrazol-3-yl)-2-(1-methyl-2-oxabicyclo[2.2.2]octan-4-yl)-2H-indazole-5-carboxamide], for which, at IRAK4, the pIC50 is 9.05. The efflux ratio at 120 min, 1 μM at MDR1 (P-gp) was found to be 0.8.
